# Assay results published in patent publication US20190136321A1, “USE OF TRANSLATIONAL PROFILING TO IDENTIFY TARGET MOLECULES FOR THERAPEUTIC TREATMENT” (The Regents of The University of California, priority 2013, published 2019).
# Assays:
# Type in all cases: cell-based, human
# SW620 cells [1] = assay: Ribosome profiling of SW620 cells (transcription, translational rate, translational efficiency); details: 8 hours
# Experimental: SW620 human colon cancer cells were cultured in DMEM media supplemented with penicillin G (100 U/ml), streptomycin (100 μg/ml), and 10% FBS in a humidified atmosphere of 5% CO2 maintained at 37° C.
# (§1) SW620 cells (ATCC, passage 12) were seeded at about 75% confluence 24 hrs prior to drug treatment. […] About 6×10^6 cells/10 cm plate and about 1×10^6 cells/well of a 6-well plate were harvested for ribosome profiling and Western blot analysis, respectively, following drug treatment.
# SW620 cells [2] = assay: Western blot of phosphorylation of protein translation components in SW620 cells
# Experimental: as §1
# Cells were washed with PBS and lysed in 1× cell lysis buffer (Cell Signaling) for 15 min at 4° C. Lysates were sonicated briefly, clarified by centrifugation for 15 min at 14, 000 rpm, and supernatants were then collected. Protein concentration in the soluble fraction was determined by BCA protein assay (Thermo Scientific). A 4-20% Bis-Tris gradient gel (Invitrogen) was used to resolve 20 μg of protein and transferred to nitrocellulose membrane. The resulting membranes were blocked for 1 hr at room temperature with Odyssey blocking solution (LI-COR) and then incubated with primary antibodies at 4° C. overnight. The following day, the blots were washed 3 times, 10 min each in TBST, and incubated with IR-conjugated goat anti-rabbit IgG secondary antibody (IRDye 800 CW at 1:20,000; LI-COR) for 1 hour at room temperature. The blots were then washed, scanned, and specific proteins were detected using the LI-COR Odyssey infrared imager. The following antibodies from Cell Signaling were used at 1:1000 dilution: anti-phospho-eIF4E(Ser209)(#9741), anti-phospho-rpS6(Ser235/236)(#4858), anti-phospho-ERK1/2(Thr202/Tyr204)(#4370), anti-phospho-p70S6K(Thr421/Ser424)(#9204), anti-phospho-p90RSK(Thr359/Ser363)(#9344), anti-phospho-4EBP(Ser65), anti-phospho-pAKT(Ser473), anti-phospho-eIF4E(Ser209), and anti-β-actin (#4970). Actin was used as a loading amount control.
# SW620 cells [3] = assay: Proliferation assay on SW620 cells
structure (smiles),measurement,setting,value
CC(=O)Nc1cccc(-n2c(=O)n(C3CC3)c(=O)c3c(Nc4ccc(I)cc4F)n(C)c(=O)c(C)c32)c1 [GSK212],Profile TE,"SW620 cells [1]; gene LIF, 250 nM",0.9 log2 MEKi/DMSO
same,Profile rna,"SW620 cells [1]; gene LIF, 250 nM",−1.7 log2 MEKi/DMSO
same,Profile rpf,"SW620 cells [1]; gene LIF, 250 nM",−0.9 log2 MEKi/DMSO
same,Profile TE,"SW620 cells [1]; gene LNK/SH2B3, 250 nM",−0.9 log2 MEKi/DMSO
same,Profile rna,"SW620 cells [1]; gene LNK/SH2B3, 250 nM",0.2 log2 MEKi/DMSO
same,Profile rpf,"SW620 cells [1]; gene LNK/SH2B3, 250 nM",−0.7 log2 MEKi/DMSO
same,Profile TE,"SW620 cells [1]; gene MAFF, 250 nM",0.6 log2 MEKi/DMSO
same,Profile rna,"SW620 cells [1]; gene MAFF, 250 nM",−1.7 log2 MEKi/DMSO
same,Profile rpf,"SW620 cells [1]; gene MAFF, 250 nM",−1.1 log2 MEKi/DMSO
same,Profile TE,"SW620 cells [1]; gene MAP2K3, 250 nM",1.0 log2 MEKi/DMSO
same,Profile rna,"SW620 cells [1]; gene MAP2K3, 250 nM",−1.6 log2 MEKi/DMSO
same,Profile rpf,"SW620 cells [1]; gene MAP2K3, 250 nM",−0.6 log2 MEKi/DMSO
same,Profile TE,"SW620 cells [1]; gene MYC, 250 nM",−0.3 log2 MEKi/DMSO
same,Profile rna,"SW620 cells [1]; gene MYC, 250 nM",−1.3 log2 MEKi/DMSO
same,Profile rpf,"SW620 cells [1]; gene MYC, 250 nM",−1.6 log2 MEKi/DMSO
same,Profile TE,"SW620 cells [1]; gene PHLDA2, 250 nM",1.1 log2 MEKi/DMSO
same,Profile rna,"SW620 cells [1]; gene PHLDA2, 250 nM",−2.1 log2 MEKi/DMSO
same,Profile rpf,"SW620 cells [1]; gene PHLDA2, 250 nM",−1.1 log2 MEKi/DMSO
same,Profile TE,"SW620 cells [1]; gene PLK3, 250 nM",0.7 log2 MEKi/DMSO
same,Profile rna,"SW620 cells [1]; gene PLK3, 250 nM",−3.1 log2 MEKi/DMSO
same,Profile rpf,"SW620 cells [1]; gene PLK3, 250 nM",−2.4 log2 MEKi/DMSO
same,Profile TE,"SW620 cells [1]; gene POLR1C, 250 nM",0.2 log2 MEKi/DMSO
same,Profile rna,"SW620 cells [1]; gene POLR1C, 250 nM",−0.8 log2 MEKi/DMSO
same,Profile rpf,"SW620 cells [1]; gene POLR1C, 250 nM",−0.6 log2 MEKi/DMSO
same,Profile TE,"SW620 cells [1]; gene POLR3G, 250 nM",−0.1 log2 MEKi/DMSO
same,Profile rna,"SW620 cells [1]; gene POLR3G, 250 nM",−0.7 log2 MEKi/DMSO
same,Profile rpf,"SW620 cells [1]; gene POLR3G, 250 nM",−0.8 log2 MEKi/DMSO
same,Profile TE,"SW620 cells [1]; gene PPAN, 250 nM",−0.7 log2 MEKi/DMSO
same,Profile rna,"SW620 cells [1]; gene PPAN, 250 nM",−0.4 log2 MEKi/DMSO
same,Profile rpf,"SW620 cells [1]; gene PPAN, 250 nM",−1.1 log2 MEKi/DMSO
same,Profile TE,"SW620 cells [1]; gene PPAT, 250 nM",−0.3 log2 MEKi/DMSO
same,Profile rna,"SW620 cells [1]; gene PPAT, 250 nM",−0.4 log2 MEKi/DMSO
same,Profile rpf,"SW620 cells [1]; gene PPAT, 250 nM",−0.7 log2 MEKi/DMSO
same,Profile TE,"SW620 cells [1]; gene PYCRL, 250 nM",0.1 log2 MEKi/DMSO
same,Profile rna,"SW620 cells [1]; gene PYCRL, 250 nM",−0.2 log2 MEKi/DMSO
same,Profile rpf,"SW620 cells [1]; gene PYCRL, 250 nM",0.0 log2 MEKi/DMSO
same,Profile TE,"SW620 cells [1]; gene RRS1, 250 nM",0.1 log2 MEKi/DMSO
same,Profile rna,"SW620 cells [1]; gene RRS1, 250 nM",−0.9 log2 MEKi/DMSO
same,Profile rpf,"SW620 cells [1]; gene RRS1, 250 nM",−0.8 log2 MEKi/DMSO
same,Profile TE,"SW620 cells [1]; gene SEMA6A, 250 nM",−1.5 log2 MEKi/DMSO
same,Profile rna,"SW620 cells [1]; gene SEMA6A, 250 nM",2.3 log2 MEKi/DMSO
same,Profile rpf,"SW620 cells [1]; gene SEMA6A, 250 nM",0.7 log2 MEKi/DMSO
same,Profile TE,"SW620 cells [1]; gene SLC1A5, 250 nM",−0.3 log2 MEKi/DMSO
same,Profile rna,"SW620 cells [1]; gene SLC1A5, 250 nM",−0.1 log2 MEKi/DMSO
same,Profile rpf,"SW620 cells [1]; gene SLC1A5, 250 nM",−0.5 log2 MEKi/DMSO
same,Profile TE,"SW620 cells [1]; gene SLC4A7, 250 nM",−0.9 log2 MEKi/DMSO
same,Profile rna,"SW620 cells [1]; gene SLC4A7, 250 nM",−0.2 log2 MEKi/DMSO
same,Profile rpf,"SW620 cells [1]; gene SLC4A7, 250 nM",−1.1 log2 MEKi/DMSO
same,Profile TE,"SW620 cells [1]; gene SPRED2, 250 nM",−1.3 log2 MEKi/DMSO
same,Profile rna,"SW620 cells [1]; gene SPRED2, 250 nM",−2.1 log2 MEKi/DMSO
same,Profile rpf,"SW620 cells [1]; gene SPRED2, 250 nM",−3.5 log2 MEKi/DMSO
same,Profile TE,"SW620 cells [1]; gene SPRY2, 250 nM",0.4 log2 MEKi/DMSO
same,Profile rna,"SW620 cells [1]; gene SPRY2, 250 nM",−1.7 log2 MEKi/DMSO
same,Profile rpf,"SW620 cells [1]; gene SPRY2, 250 nM",−1.3 log2 MEKi/DMSO
same,Profile TE,"SW620 cells [1]; gene SPRY4, 250 nM",−2.0 log2 MEKi/DMSO
same,Profile rna,"SW620 cells [1]; gene SPRY4, 250 nM",−5.2 log2 MEKi/DMSO
same,Profile rpf,"SW620 cells [1]; gene SPRY4, 250 nM",−7.1 log2 MEKi/DMSO
same,Profile TE,"SW620 cells [1]; gene TNC, 250 nM",−1.6 log2 MEKi/DMSO
same,Profile rna,"SW620 cells [1]; gene TNC, 250 nM",1.1 log2 MEKi/DMSO
same,Profile rpf,"SW620 cells [1]; gene TNC, 250 nM",−0.5 log2 MEKi/DMSO
same,Profile TE,"SW620 cells [1]; gene TNFRSF12A, 250 nM",0.2 log2 MEKi/DMSO
same,Profile rna,"SW620 cells [1]; gene TNFRSF12A, 250 nM",−2.2 log2 MEKi/DMSO
same,Profile rpf,"SW620 cells [1]; gene TNFRSF12A, 250 nM",−2.0 log2 MEKi/DMSO
same,Profile TE,"SW620 cells [1]; gene WDR3, 250 nM",−1.0 log2 MEKi/DMSO
same,Profile rna,"SW620 cells [1]; gene WDR3, 250 nM",0.0 log2 MEKi/DMSO
same,Profile rpf,"SW620 cells [1]; gene WDR3, 250 nM",−1.0 log2 MEKi/DMSO
same,Profile TE,"SW620 cells [1]; gene YRDC, 250 nM",0.1 log2 MEKi/DMSO
same,Profile rna,"SW620 cells [1]; gene YRDC, 250 nM",−0.7 log2 MEKi/DMSO
same,Profile rpf,"SW620 cells [1]; gene YRDC, 250 nM",−0.6 log2 MEKi/DMSO
same,"phosphorylation of S6, eIF4E and 4EBP1",SW620 cells [2]; 25 nM to 100 nM (data not shown),little or no effect
same,Phosphorylation of ERK and p90RSK,"SW620 cells [2]; 250 nM, 8 hrs",completely inhibited
same,phosphorylation of eIF4E,"SW620 cells [2]; 250 nM, 8 hrs",partial inhibition
same,phosphorylation of the ribosomal protein S6 (rpS6) and S6K (p70RSK),"SW620 cells [2]; 250 nM, 8 hrs",only partial inhibition
same,inhibition of proliferation or induction of apoptosis,SW620 cells [3]; 250 nM for 8 hours,No evidence
same,potency in 72 hour proliferation assays,SW620 cells [3]; 72 hour (data not shown),20 to 30 nM
